Laboratory results published in patent publication US20260248788A1, “NEW COMPOUNDS AND TREATMENT OF RENAL CELL CARCINOMA” (TRUSTLIFE THERAPEUTICS INC., priority 2023, published 2026).
Entries after “also recorded” stand apart in the source; their conditions may differ. *1 amine or outer side, *2 acyl side, *3 side chain or, on linkers, in order; H or OH if unused. Where a SMILES comes first, the peptide text is derived from it. Bridges are numbered along the chain shown (N, C = ends). Roman numbers before positions name the chains, in order. [ ]: non-standard residue; d: D form. Actinocin(9to1) = Cc1c2oc3c(C)ccc(C(=O)[*:1])c3nc-2c(C(=O)[*:2])c(N)c1=O; NMeV = CN[C@H](C(=O)O)C(C)C; Sar = CNCC(=O)O

Legend:
Assay type in all cases: cell-based, human
Caki-1 = assay: Cell Counting Kit-8 (CCK-8) cell viability assay; conditions: Caki-1, 24 h; TG-101209 6 nM, NVP-TAE684 3 nM, MK-0752 5 nM, withaferin-a 4 μM, panobinostat 5 nM; vs DMSO
Procedure: Cell culture 1: Human clear cell renal cell carcinoma (ccRCC) cell line Caki-1 was obtained from the Karolinska Institute of Environmental Medicine, Stockholm, Sweden, derived from a ccRCC patient. The cells were cultured in RPMI 1640 medium with 10% fetal bovine serum (FBS) and 1% penicillin/streptomycin. The cells were cultivated at 37° C. in a humidified incubator with 5% CO2. TG-101209, NVP-TAE684, MK-0752, actinomycin-d, and panobinostat were purchased from Selleckchem ([…], […], […], […], […], Selleckchem, Houston, TX, USA), and withaferin-a was purchased from Sigma (W4394, Sigma-Aldrich, Saint Louis, MO, USA). These drugs were dissolved in DMSO. The cells (from cell culture 1) were seeded in a 96-well plate at 20×10^3 cells per well. After seeding for 24 h, the cells were treated for 24 h with the target drugs: TG-101209 (6 nM), NVP-TAE684 (3 nM), MK-0752 (5 nM), withaferin-a (4 μM), actinomycin-d (0.3 nM), and panobinostat (5 nM). The cells in the negative control group were only treated by DMSO for one day. Cell proliferation was detected by Cell Counting Kit-8 (CCK-8) assay. The 10 μl of CCK-8 reagent (1:10) was added to each well of 96-well plate with siRNA transfected cells or drug-treated cells by manufacturer's instruction. The 96-well plate was incubated at 37° C. for 2 hours and then measured absorbance at 450 nm using a microplate reader (Hidex Sense Beta Plus).

RRM2 = assay: Western blot of RRM2 protein level in drug-treated Caki-1; conditions: Caki-1, 24 h; NVP-TAE684 3 nM, MK-0752 5 nM, withaferin-a 4 μM, actinomycin-d 0.3 nM; vs DMSO
Procedure: (§1) Cell culture 1: Human clear cell renal cell carcinoma (ccRCC) cell line Caki-1 was obtained from the Karolinska Institute of Environmental Medicine, Stockholm, Sweden, derived from a ccRCC patient. The cells were cultured in RPMI 1640 medium with 10% fetal bovine serum (FBS) and 1% penicillin/streptomycin. The cells were cultivated at 37° C. in a humidified incubator with 5% CO2.
(§2) TG-101209, NVP-TAE684, MK-0752, actinomycin-d, and panobinostat were purchased from Selleckchem (S2692, S1108, S2660, S8964, S1030, Selleckchem, Houston, TX, USA), and withaferin-a was purchased from Sigma (W4394, Sigma-Aldrich, Saint Louis, MO, USA). These drugs were dissolved in DMSO. The cells (from cell culture 1) were seeded in a 96-well plate at 20×10^3 cells per well. After seeding for 24 h, the cells were treated for 24 h with the target drugs: TG-101209 (6 nM), NVP-TAE684 (3 nM), MK-0752 (5 nM), withaferin-a (4 μM), actinomycin-d (0.3 nM), and panobinostat (5 nM). The cells in the negative control group were only treated by DMSO for one day.
The cells were washed with phosphate-buffered saline (PBS) and lysed with CelLytic M (C2978, Sigma-Aldrich, Saint Louis, MO, USA) lysis buffer containing protease inhibitors. The lysates were centrifuged at 12 000 rpm for 5 min, and the supernatant was collected. The proteins were separated by Mini-PROTEAN® TGX™ Precast Gels (BioRad, Berkeley, CA, USA) and transferred to a Trans-Blot Turbo Mini 0.2 μm PVDF Transfer Packs membrane (BioRad, Berkeley, CA, USA) by using Trans-Blot® Turbo™ Transfer System (Bio-Rad, Berkeley, CA, USA). The antibodies for BUB1B (HPA008419), RRM2 (HPA056994), CEP55 (HPA023430), ASF1B (HPA069385), CCNB2 (HPA008873), and GAPDH (sc47724, Santa Cruz Biotechnology, Inc.) were used for primary immunoblotting. All the antibodies were diluted at 1:10000 concentration. The membranes were incubated in primary antibody solution overnight at 4° C. with gentle rocking. […] The protein bands were detected with ImageQuanat™ LAS 500 (29-0050-63, GE) automatic exposure procedure or 6 min exposure.

BUB1B [1] = assay: Western blot of BUB1B protein level in drug-treated Caki-1; conditions: Caki-1, TG-101209 6 nM, 24 h, vs DMSO negative control
Procedure: as §1, §2
The cells were washed with phosphate-buffered saline (PBS) and lysed with CelLytic M (C2978, Sigma-Aldrich, Saint Louis, MO, USA) lysis buffer containing protease inhibitors. […] The protein bands were detected with ImageQuanat™ LAS 500 (29-0050-63, GE) automatic exposure procedure or 6 min exposure.

Caki-1 cells [2] = assay: MTT cell viability assay
Procedure: (§3) Cell culture 2: Caki-1 was purchased from CLS Cell Lines Service (Germany). The cells were maintained in McCoy's 5A (modified) medium (16600082, Thermo Fisher Scientific, USA) and supplemented with 10% fetal bovine serum (FBS, F7524, Sigma-Aldrich), 1% Penicillin/Streptomycin (P4333, Sigma-Aldrich).
The cytotoxic effects of the TG-101209 and its alternatives on the Caki-1 cells were tested by MTT (Thiazolyl Blue Tetrazolium Bromide) method. 1.5×10^4 cells were seeded per well in a 96-well plate in 100 μL growth media. […] After the incubation period, 5 mg/ml MTT (M2128, Sigma-Aldrich) solution in PBS (10 μL) was added to each well. After 1 hour, the MTT solution and all media were removed from the wells. 100 μl of DMSO was added and mixed to dissolve the formazan crystals. Cell viability was analysed by measuring the absorbance of the dissolved formazan at a wavelength of 570 nm with a microplate reader (Hidex Sense Beta Plus).

Caki-1 cells [3] = assay: LDH cytotoxicity assay; conditions: Caki-1, 10 nM-30 μM
Procedure: as §3
Lactate dehydrogenase (LDH) assay was performed with LDH Assay Kit (ab65393). […] 20 μl of media was analysed with LDH Assay Kit as per manufacturer's instruction.

BUB1B [4] = assay: Western blot of BUB1B in Caki-1 cells treated with TG-101209 derivatives; conditions: Caki-1 cells, 5 μM of target drug, 1 day (FIG. 41, 56)
Procedure: as §3
The target drugs developed as alternatives to TG-101209, were dissolved in 0.1% DMSO (41639, Sigma-Aldrich). Caki-1 cells from cell culture 2 were seeded in a 6-well plate at 3×10^5 cells per well. […]
The cells were washed with PBS solution and then lysed with CelLytic M (C2978, Sigma-Aldrich) lysis buffer containing protease inhibitors (11836170001, Roche). The cell lysates were centrifuged at 12 000 rpm for 10 min and supernatants were collected. Protein Assay Dye Reagent (5000006, Bio-Rad) was used for the determination of protein concentration. The absorbance of the proteins was measured spectrophotometrically at 595 nm by a microplate reader (Hidex Sense Beta Plus). Protein electrophoresis was performed using Mini-PROTEAN® TGX™ Precast Gels (4561086, Bio-Rad) and then the separated proteins were transferred to a Trans-Blot Turbo Mini 0.2 μm PVDF Transfer Packs membrane (1704158, Bio-Rad) by using Trans-Blot® Turbo™ Transfer System (Bio-Rad). The membrane was blocked with 5% skim milk for 30 min at 4° C. with gentle rocking. After blocking, the membrane was treated with primary antibodies: Anti-BUB1B (HPA008419, Human Protein Atlas, Sweden) and Anti-Beta actin (ab8227, Abcam) as a loading control overnight at 4° C. on a rocking platform. After the treatment of primary antibodies, the membrane was washed three times with TBS-T buffer (A09-7500-100, Medicago). Then, Goat anti-Rabbit IgG-HRP (ab205718, Abcam) was treated as the secondary antibody for 30 min at 4° C. with gentle rocking.

| SMILES | cell viability (CCK-8) (Caki-1) | protein level of RRM2 (Western blot) (RRM2) | protein level of BUB1B (Western blot) (BUB1B [1]) | change of IC50 values after 2 days compared to 1 day treatment (Caki-1 cells [2]; Caki-1 (FIG. 53-54)) | effect on cell viability (MTT) (Caki-1 cells [2]; Caki-1, 10 μM, 1 day, first batch) | IC50 (Caki-1 cells [2]; Caki-1, 1 day (FIG. 43), text: after treatment with 5 μM) [nM] | Ranking, Cell viability (%) (Caki-1 cells [2]; top five, MTT assay, 10 μM, 1 day, rank 1 = greatest reduction) | cytotoxic effect and dose dependence (Caki-1 cells [3]) | expression levels of BUB1B (Western blot) (BUB1B [4]) |
| --- | --- | --- | --- | --- | --- | --- | --- | --- | --- |
| COc1cc(N2CCC(N3CCN(C)CC3)CC2)ccc1Nc1ncc(Cl)c(Nc2ccccc2S(=O)(=O)C(C)C)n1 [NVP-TAE684] | significantly reduced | significantly suppressed | – | – | – | – | – | – | – |
| Cc1cnc(Nc2ccc(N3CCN(C)CC3)cc2)nc1Nc1cccc(S(=O)(=O)NC(C)(C)C)c1 [TG-101209, reference compound] | significantly reduced | – | significantly decreased; also recorded: significantly reduced | largest decrease | most profound effect | ~3000 | 5 | dose dependent toxicity | significantly lower the expression levels of BUB1B |
| Cc1c2oc3c(C)ccc(C(=O)N[C@@H]4C(=O)N[C@H](C(C)C)C(=O)N5CCC[C@H]5C(=O)N(C)CC(=O)N(C)[C@@H](C(C)C)C(=O)O[C@@H]4C)c3nc-2c(C(=O)N[C@@H]2C(=O)N[C@H](C(C)C)C(=O)N3CCC[C@H]3C(=O)N(C)CC(=O)N(C)[C@@H](C(C)C)C(=O)O[C@@H]2C)c(N)c1=O [actinomycin-d] (I: T[dV]P[Sar][NMeV] / II: T[dV]P[Sar][NMeV]; ester I:1-I:C, II:1-II:C; linker I:N-II:N via Actinocin(9to1)) | – | does not work for inhibiting RRM2 | – | – | – | – | – | – | – |
| CC1=C(CO)C(=O)O[C@@H]([C@@H](C)[C@H]2CC[C@H]3[C@@H]4C[C@H]5O[C@]56[C@@H](O)C=CC(=O)[C@]6(C)[C@H]4CC[C@]23C)C1 [withaferin-a] | significantly reduced | significantly suppressed | – | – | – | – | – | – | – |
